Legend:
canine PBMCs = assay: PBMCs permeability assay (Sytox green); assay type: cell-based, dog; conditions: 100 μg, 30 min, relative to SpEX
Procedure: (§1) PMNs and PBMCs were separated as previously described. PMNs and PBMCs were incubated with recombinant proteins (SpEX and SpEX-M) at concentration of 100 μg in a volume of 500 μl in RPMI medium supplemented with 10% fetal bovine serum in a 5% CO2 incubator for 30 min. The supernatant of S. pseudintermedius 06-3228 was harvested at log phase to test the toxic effect of secreted SpEX. PMNs and PBMCs were stained with 1 Sytox green (Life Technologies, Inc. Cat No. 1776406) for 30 min, washed twice with PBS (pH 7.2) and analyzed using a flow cytometer (Attune acoustic focusing cytometer) by gating on PMNs and PBMCs based on their side and forward scatter properties.
(§2) To determine the protective effect of canine anti-SpEX-M on PMNs and PBMCs, recombinant S. pseudintermedius SpEX at concentration of 100 μg/ml in PBS (pH 7.2) was incubated for 30 minutes at 37° C. with serum from SpEX-M injected dogs. The experiment was run in duplicate and a p-value of <0.05 was considered significant.
(§3) For flow cytometry analysis the cut-off for cell death was established using leukocytes incubated without SpEX. Mean fluorescent intensity was determined from all gated cells.

canine PMNs [1] = assay: PMNs permeability assay (Sytox green); assay type: cell-based, dog; conditions: 100 μg, 30 min, relative to SpEX
Procedure: as §1, §2, §3

clinically normal dogs = assay: Antibody response of dogs injected with SpEX-M (ELISA); assay type: in vivo, dog; conditions: 20 μg subcutaneous, three weekly injections; sera days −7, 8, 15, 29; versus pre-injection sera
Procedure: Recombinant SpEX-M (SEQ ID NO:12) produced in E. coli was purified using affinity chromatography (as above) and endotoxin concentration was measured using a ToxinSensor™ Chromogenic LAL Endotoxin Assay Kit (Genscript, Cat. No. L00350). Recombinant SpEX-M at 20 μg each/0.5 cc in phosphate buffered saline (PBS) (pH 7.2) were injected in the lateral thorax by the subcutaneous route, into three clinically normal dogs. Injections were given once every 7 days for a total of three injections with a control dog receiving PBS (pH 7.2) only. Blood (6 cc) was collected from a jugular vein 4 times, on days −7, 8, 15 and 29 (relative to injections). […]
For measurement of recombinant protein antigenicity, SpEX and SpEX-M were coated separately onto ELISA plates (Corning, Cat No. 3590) at 2 μg/ml in PBS. The plates were washed with 0.05% PBS-T and incubated with two-fold serial diluted serum from dogs (injected with recombinant proteins) for 1 h at 37° C., then bound IgG was detected using HRP-conjugated goat anti-dog IgG-heavy and light chain (Bethyl Laboratories, Inc. Cat No. A40-123-1). ELISA assays plates were washed three times with PBS-T between all incubations, bound antibodies were detected using TMB substrate (Thermo Scientific, Cat No. N301), reactions were stopped with 0.18 M sulphuric acid and optical density read at 450 nm on a plate reader (Bio TEK, EL800). […]

canine blood PMNs [2] = assay: Phagocytosis of pHrodo-labeled S. pseudintermedius 06-3228 in dog blood (flow cytometry); assay type: cell-based; conditions: 37° C., adenosine 15 μM, ADP analogue 500 μM, ZM241385 1 μM
Procedure: (§4) Bacteria for the phagocytosis assay were labeled using a pHrodo™ phagocytosis particle labeling kit (Life technologies, P35369) (10). Briefly, overnight cultures of S. pseudintermedius 06-3228 and 08-1661 were diluted 1:100 into fresh TSB and grown for 3 hours at 37° C. Bacteria were centrifuged, washed twice, and diluted to 20 mg/mL wet weight in 0.1 M sodium bicarbonate, pH 8.5, and pHrodo™ dye was dissolved in DMSO at 10 mM. The bacteria were suspended at a final dye concentration of 0.5 mM. The inhibitory effect of SpAdsA on canine neutrophils was evaluated in blood samples by exposing the EDTA-whole blood samples to pHrodo™ dye-labeled S. pseudintermedius 06-3228 and 08-1661 for 30 and 60 minutes at 37° C. The RBCs were lysed using Red Blood Cell Lysing Buffer Hybri-Max™ (Sigma-Aldrich, Cat NO. R7757) followed by centrifugation and washing. The final cell pellet, containing leukocytes, was suspended in wash buffer and analyzed using a flow cytometer equipped with a 488-nm argon ion laser (Attune acoustic focusing cytometry).

[3] = test system: S. pseudintermedius 08-1661; assay: Bacterial survival in canine blood; assay type: cell-based, Staphylococcus pseudintermedius; conditions: adenosine 15 μM; 5′-(α, β-methylene) diphosphate 500 μM; ZM241385; 1, 1.5, 2 hours; versus bacteria alone
Procedure: (§5) Overnight cultures of S. pseudintermedius 06-3228 and 08-1661 were diluted 1:100 into fresh TSB and grown for 3 hours at 37° C. Staphylococci were centrifuged 9000×g, washed twice, and diluted in PBS to yield an O.D 600 of 0.5. Then 100 μl of 4×10^6 CFU per ml of bacteria were mixed with 500 μl of fresh canine blood, collected in EDTA. The samples were incubated at 37° C. with 100 rpm shaking and harvested at 60, 90 and 120 minutes. They were incubated on ice for 30 minutes in 1 ml of Red Blood Cell Lysing Buffer Hybri-Max™ (Sigma-Aldrich, Cat NO. R7757), then bacteria were pelleted at 9,000×g at 4° C. and plated on tryptic soy agar (TSA) for enumeration of viable bacteria.

[4] = test system: S. pseudintermedius 06-3228; assay: Bacterial survival in canine blood; assay type: cell-based, Staphylococcus pseudintermedius; conditions: adenosine 15 μM; 5′-(α, β-methylene) diphosphate 500 μM; ZM241385; 1, 1.5, 2 hours; versus bacteria alone
Procedure: as §5

canine blood PMNs [5] = assay: Phagocytosis of pHrodo-labeled S. pseudintermedius 08-1661 in dog blood (flow cytometry); assay type: cell-based; conditions: 37° C., adenosine 15 μM, ADP analogue 500 μM, A2A receptor antagonist
Procedure: as §4

canine PMNs [6] = assay: Binding of biotin labelled wild type and attenuated LukS and LukF to canine PMNs; assay type: cell-based, dog; conditions: biotin labelled proteins, 30 minutes
Procedure: Purified recombinant S. pseudintermedius wild type and attenuated LukS and LukF at 500 μg/ml in PBS (pH 7.2) were incubated with 50 μl of 10 mM EZ-Link Sulfo-NHS-LC-Biotin reagent (equal to 20-fold molar excess of biotin) (Thermo Scientific, Cat No. 21327) for 30 min at room temperature. Excess biotin was removed using an Amicon Ultra-0.5 Centrifugal Filter Unit with a 30 kDa molecular weight cut-off (Milipore sigma, Cat No. UFC5030). The biotin-labeled proteins were stored at −20° C. until further use.
To test the binding of wild type and attenuated LukS and LukF to canine PMNs, biotin labelled recombinant proteins were incubated with PMNs from a clinical healthy dog for 30 minutes at room temperature, the cells were washed, then PMNs were incubated with 1:500 dilution of avidin-FITC conjugate (Sigma-Aldrich, A2050) at room temperature for 30 minutes in the dark. Unbound conjugate was removed by washing and the amount of binding was determined using a flow cytometer (Attune acoustic focusing cytometer) by gating on PMNs based on their side and forward scatter properties.

dog IgG = assay: ELISA reactivity with dog serum / dog IgG; assay type: binding; conditions: compared to SpsQ and SpA
Procedure: (§6) To test the reactivity of serum from a dog with chronic pyoderma, S. aureus SpA and S. pseudintermedius SpsQ and SpsQ-M were coated on ELISA plates (Corning, USA Cat No. 3590) at 2 μg/ml in PBS. They were incubated with serum at a dilution of 1:2000. Bound IgG, IgM, and IgA were detected by HRP-goat anti-dog IgG-heavy and light chain (Bethyl Laboratories, Inc., USA Cat No. A40-123-1), HRP-goat anti-dog IgM μ chain (Bethyl Laboratories, Inc., USA Cat No. A40-116-2), HRP-goat anti-dog IgA (Bethyl Laboratories, Inc., USA Cat No. A40-104P) at a dilution of 1:8000 in PBS-T. Dog whole IgG molecule (Rockland, USA Cat No. 004-0102-1000) was used for comparison to measure non-specific IgG binding.

dog IgA = assay: ELISA reactivity with dog IgA; assay type: binding; conditions: compared to SpsQ and SpA
Procedure: as §6

canine B cells [7] = assay: B cell death (Sytox green, flow cytometry); assay type: cell-based, dog; conditions: 3.5 h incubation; ± SEM
Procedure: (§7) A total of 100 μg of purified recombinant SpsQ or SpsQ-M was mixed with isolated peripheral blood mononuclear cells (PBMC) in 1 ml of RPMI medium supplemented with 10% fetal bovine serum and incubated for 1.5 h at 37° C. in a 5% CO2 incubator. To detect early phases of B cell apoptosis, phosphatidylserine was measured on the surface of cells using pacific blue-conjugated annexin (Thermo Scientific, USA Cat No. A35136). B cells were identified using phycoerythrin (PE) conjugated mouse anti-canine CD21 (clone: CA2.1D6) (BIO-RAD, USA Cat No. MCA1781PE) that recognizes canine CD21 (complement receptor type 2) on mature B lymphocytes. Stained B cells were analyzed using a flow cytometer (Attune acoustic focusing cytometer). B cells were also incubated with the same recombinant proteins as described above but for 3.5 h in order to detect B cell death. Cells were stained with Sytox green (Life Technologies, Inc., USA Cat No. 1776406) and PE-conjugated mouse anti-canine CD21. Gates were placed on cells positive for PE and these B cells were analyzed by flow cytometry.
(§8) For flow cytometry analysis the cut-off for apoptosis or cell death was established using leukocytes incubated without SpsQ. Mean fluorescent intensity was determined from all B cells.

[8] = test system: chicken anti-protein A antibody; assay: ELISA antigenicity with HRP-chicken anti-protein A antibody; assay type: binding; conditions: coated protein
Procedure: For measurement of the antigenicity of recombinant proteins, affinity-purified SpsQ and SpsQ-M were coated on ELISA plates (Corning, USA Cat No. 3590) at […] in PBS (pH 7.2). The plates were washed with PBS-T and incubated with HRP-chicken anti-protein A antibody (Gallus Immunotech, USA Cat No. APA) for 1 h at 37° C., then washed. For this and all subsequent ELISA assays, plates were washed three times with PBS-T between all incubations, bound antibodies were detected using TMB substrate (Thermo Scientific, USA Cat No. N301), reactions were stopped with 0.18 M sulphuric acid and optical density read at 450 nm on a plate reader (Bio TEK, USA Cat No. EL800). The experiment was repeated at least three times and a p-value of <0.05 was considered significant, which was the same for all the experiments unless mentioned otherwise.

canine B cells [9] = assay: B cell apoptosis (annexin, flow cytometry); assay type: cell-based, dog; conditions: 1.5 h
Procedure: as §7, §8

dog IgM = assay: ELISA reactivity with dog IgM; assay type: binding; conditions: compared to SpsQ and SpA
Procedure: as §6

Compound | phagocytosis, mean MFI (canine blood PMNs [2]; 06-3228, 30 minutes) | phagocytosis, mean MFI (canine blood PMNs [2]; 06-3228, 60 minutes) | survival of S. pseudintermedius 08-1661 in canine blood [3] | survival of S. pseudintermedius 06-3228 in canine blood [4] | phagocytosis, mean MFI (canine blood PMNs [5]; 08-1661, 30 minutes) | phagocytosis, mean MFI (canine blood PMNs [5]; 08-1661, 60 minutes) | binding to canine leukocytes (canine PMNs [6]) | further results
SpEX-M: attenuated SpEX with substitutions D 102A, T125P, T206P and R217A |  |  |  |  |  |  |  | killing effect on PBMCs of dogs (canine PBMCs): diminished killing effect; killing effect on PMNs (canine PMNs [1]): diminished killing effect; IgG against S. pseudintermedius SpEX-M and SpEX in sera of injected dogs (clinically normal dogs): reached the highest level on day 29
Nc1nc(NCCc2ccc(O)cc2)nc2nc(-c3ccco3)nn12 [ZM241385] | 241513 | no significant difference | significantly decreased at all of time points | significantly decreased at all of time points | 1,306,729 | 2,924,203 |  | 
LukF-M: attenuated Leukotoxin F with substitutions S59D and N65A |  |  |  |  |  |  | bound to canine leukocytes without causing any significant killing | 
LukS-M: attenuated Leukotoxin S with substitutions T57F, K128A and S239A |  |  |  |  |  |  | bound to canine leukocytes without causing any significant killing | 
SpsQ-M: attenuated non-toxigenic S. pseudintermedius protein A with Q5K, Q6K, D32A, D33A in each Ig binding domain |  |  |  |  |  |  |  | binding to commercial dog IgG (dog IgG): significantly lower binding; binding to IgA (dog IgA): significantly lower binding; Sytox MFI reduction compared to that of SpsQ (canine B cells [7]): 519065±128292; reactivity with chicken anti-protein A (antigenicity) [8]: strong reactivity; apoptotic effect on B cells (canine B cells [9]; 100 μg protein, PBMC): low apoptotic effect; mean+/−SEM fluorescent intensity (MFI) difference between SpsQ and SpsQ-M (canine B cells [9]): 2052±285.2; binding to IgM (dog IgM): significantly lower binding
Nc1ncnc2c1ncn2[C@@H]1O[C@H](CO)[C@@H](O)[C@H]1O [adenosine] | 89,583 | 711,453 | significantly promoted | significantly promoted | 375,737 | 764,921 |  | 

— patent US12138303B2, “Staphylococcus pseudintermedius virulence factor compositions” (UNIVERSITY OF TENNESSEE RESEARCH FOUNDATION, priority 2017, dated 2024)
